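Growth conditions: 96-well plates. Treatment: test compound, 48 hours, 5 concentrations. Analysis: linear interpolation between bracketing concentrations; unreached endpoints set to highest concentration. GI50 is the concentration that inhibits growth by half.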 Activity calls are given as the source filed them. No stated cut-off is given here; in the data, active = GI50 up to about 1.1 µM and inactive = higher.
Columns and labels:
Assay in all cases: inhibition of tumour cell growth, NCI panel, 48 h
K562 = test system: K562
A498 = test system: A498
SN12C = test system: SN12C
HCT-15 = test system: HCT-15
TK-10 = test system: TK-10
HOP-62 = test system: HOP-62
RXF 393 = test system: RXF 393
MCF7 = test system: MCF7
NCI-H522 = test system: NCI-H522
UACC-62 = test system: UACC-62
SNB-19 = test system: SNB-19
OVCAR-4 = test system: OVCAR-4
HCC 2998 = test system: HCC 2998
T47D = test system: T47D
ACHN = test system: ACHN
NCI-H226 = test system: NCI-H226
KM12 = test system: KM12
NCI-H23 = test system: NCI-H23
SF-268 = test system: SF-268
SF-539 = test system: SF-539

Row | SMILES | GI50 (K562) | GI50 (A498) | GI50 (SN12C) | GI50 (HCT-15) [µM] | GI50 (TK-10) | GI50 (HOP-62) | GI50 (RXF 393) | GI50 (MCF7) | GI50 (NCI-H522) | GI50 (UACC-62) | GI50 (SNB-19) | GI50 (OVCAR-4) | GI50 (HCC 2998) | GI50 (T47D) | GI50 (ACHN) | GI50 (NCI-H226) | GI50 (KM12) | GI50 (NCI-H23) | GI50 (SF-268) | GI50 (SF-539)
1 | O=C(O)c1ccc(N2C=[N+]3C(=Nc4ccccc43)C2)cc1 | > 100 µM (inactive) | > 100 µM (inactive) | > 100 µM (inactive) | > 100 | > 100 µM (inactive) | > 100 µM (inactive) | > 100 µM (inactive) | > 100 µM (inactive) | > 100 µM (inactive) | > 100 µM (inactive) | > 100 µM (inactive) | > 100 µM (inactive) | > 100 µM (inactive) | > 100 µM (inactive) | > 100 µM (inactive) | > 100 µM (inactive) | > 100 µM (inactive) | > 100 µM (inactive) | > 100 µM (inactive) | 
2 | Cn1c(COC(=O)NC2CCCCC2)c(COC(=O)NC2CCCCC2)c2ccc3cc(C=O)ccc3c21 | > 100 µM (inactive) | > 100 µM (inactive) | > 100 µM (inactive) | > 100 | > 100 µM (inactive) |  | 51.1 µM (inactive) | > 100 µM (inactive) |  | > 100 µM (inactive) | > 100 µM (inactive) |  | > 100 µM (inactive) | > 100 µM (inactive) | > 100 µM (inactive) | > 100 µM (inactive) | > 100 µM (inactive) | > 100 µM (inactive) | 37.5 µM (inactive) | > 100 µM (inactive)
3 | O=c1[nH]c(=O)c2c3n(cc2[nH]1)CCCCC3 | > 100 µM (inactive) | > 100 µM (inactive) | > 100 µM (inactive) | > 100 | 17.5 µM (inactive) | > 100 µM (inactive) | > 100 µM (inactive) | > 100 µM (inactive) | > 100 µM (inactive) | > 100 µM (inactive) | > 100 µM (inactive) | > 100 µM (inactive) | > 100 µM (inactive) | > 100 µM (inactive) | > 100 µM (inactive) | > 100 µM (inactive) | > 100 µM (inactive) | > 100 µM (inactive) | > 100 µM (inactive) | 
4 | CC(C)c1ccc(NC(=S)NC(=O)c2ccccc2)cc1 | 12.1 µM (inactive) | 22.9 µM (inactive) | 34.6 µM (inactive) | 17.6 | 18.2 µM (inactive) | 33.8 µM (inactive) | 18.6 µM (inactive) | 18.4 µM (inactive) | 17.4 µM (inactive) | 13.6 µM (inactive) | 48.4 µM (inactive) | 16.9 µM (inactive) | 16 µM (inactive) | 18.7 µM (inactive) | 18.2 µM (inactive) |  | 18.2 µM (inactive) | 23 µM (inactive) | 21.4 µM (inactive) | 36.2 µM (inactive)
5 | COc1cc(OC)cc(OCc2ccc3nc(-c4ccccc4)c(Cl)nc3c2)c1 |  | 35 µM (inactive) | 40.7 µM (inactive) | > 100 | 20.2 µM (inactive) | 16.7 µM (inactive) |  | 58.6 µM (inactive) | 5.05 µM (inactive) | 32.4 µM (inactive) | 25.9 µM (inactive) | 24.1 µM (inactive) | 32.7 µM (inactive) | 24.7 µM (inactive) | 17.7 µM (inactive) |  | 58.3 µM (inactive) | 17.3 µM (inactive) | 30.5 µM (inactive) | 18.4 µM (inactive)
6 | Cc1ccc(S(=O)(=O)n2cc(C#N)c(C#N)c2)cc1 | 33.3 µM (inactive) | 24.7 µM (inactive) | 29.1 µM (inactive) | 17.9 | 38.3 µM (inactive) | 24.5 µM (inactive) | 32.3 µM (inactive) | 22.3 µM (inactive) | 15.4 µM (inactive) | 17.3 µM (inactive) | > 10 µM (inactive) | 74 µM (inactive) | 24.3 µM (inactive) | 26.4 µM (inactive) | 19.3 µM (inactive) |  | 31 µM (inactive) | 29.8 µM (inactive) | 26.6 µM (inactive) | 19.6 µM (inactive)
7 | COC(=O)c1c(C(=O)OC)c(C(c2ccccc2)c2ccccc2)n(-c2ccccc2)c1Cl | 4.14 µM (inactive) | > 10 µM (inactive) | > 10 µM (inactive) | 5.5 | > 10 µM (inactive) | > 10 µM (inactive) | > 10 µM (inactive) | 7.76 µM (inactive) |  | 9.33 µM (inactive) | > 10 µM (inactive) | 6.49 µM (inactive) | > 10 µM (inactive) | 4.74 µM (inactive) | 6.25 µM (inactive) | > 10 µM (inactive) | 4.69 µM (inactive) | 6.76 µM (inactive) | > 10 µM (inactive) | > 10 µM (inactive)
8 | CC(C)(C)c1cc2c(O)c(c1)C(c1ccccc1)c1cc(C(C)(C)C)cc(c1O)Cc1cc(C(C)(C)C)cc(c1O)C(c1ccccc1)c1cc(C(C)(C)C)cc(c1O)C2 (configuration not stated) | > 100 µM (inactive) | > 100 µM (inactive) | > 100 µM (inactive) | > 100 | > 100 µM (inactive) | > 100 µM (inactive) | > 100 µM (inactive) | > 100 µM (inactive) | > 100 µM (inactive) | > 100 µM (inactive) | > 100 µM (inactive) | > 100 µM (inactive) | > 100 µM (inactive) | > 100 µM (inactive) | > 100 µM (inactive) |  | > 100 µM (inactive) | > 100 µM (inactive) | > 100 µM (inactive) | > 100 µM (inactive)
9 | ClC(Cl)=C1C(=C(Cl)Cl)C(Cl)(Cl)C1(Cl)Cl | 0.443 µM (active) | 11.6 µM (inactive) |  | 1.14 | 3.52 µM (inactive) | 8.18 µM (inactive) | 1.45 µM (inactive) | 4.47 µM (inactive) | 0.0612 µM (active) | 1.95 µM (inactive) | 12.5 µM (inactive) | 5.07 µM (inactive) | 4.78 µM (inactive) | 4.92 µM (inactive) | 2.48 µM (inactive) |  | 4.9 µM (inactive) | 1.04 µM (active) | 2.21 µM (inactive) | 2.34 µM (inactive)
10 | CC12CC(C#N)(C#N)C(C#N)(CO1)C(=N)O2 (configuration not stated) | 75.7 µM (inactive) | > 100 µM (inactive) | > 100 µM (inactive) | 40.6 | > 100 µM (inactive) |  | 59.7 µM (inactive) | > 100 µM (inactive) |  | 24.9 µM (inactive) | > 100 µM (inactive) | > 100 µM (inactive) | > 100 µM (inactive) | > 100 µM (inactive) | > 100 µM (inactive) | > 100 µM (inactive) | > 100 µM (inactive) | > 100 µM (inactive) | > 100 µM (inactive) | > 100 µM (inactive)
11 | CC(C)(C)OC(=O)N1[C@@H]2Cc3ccc(N)cc3[C@@]1(C)c1ccccc12 | 24.8 µM (inactive) | 30.5 µM (inactive) | 16.8 µM (inactive) | 11.1 | 35.5 µM (inactive) | 35 µM (inactive) | 15 µM (inactive) | 34.1 µM (inactive) | 12.2 µM (inactive) | 20.6 µM (inactive) | 44.1 µM (inactive) | 29.8 µM (inactive) | 21.3 µM (inactive) | 17.7 µM (inactive) | 36.8 µM (inactive) |  | 33 µM (inactive) | 19.3 µM (inactive) | 37.3 µM (inactive) | 
